Measurements taken from ChEMBL document CHEMBL6074674, “Development of Novel Silicon-Based Hydrophobic Tags (SiHyT) for Targeted Proteins Degradation” (J Med Chem, 2024).
Activity calls are given as the source filed them. No cut-off for these calls is given here.

What was measured:
[1] = Oral bioavailability in ICR mouse at 10 mg/kg by LC-MS/MS analysis; assay type: ADME, organism-based; details: in vivo
[2] = Cmax in ICR mouse at 1 mg/kg, iv by LC-MS/MS analysis; assay type: ADME, organism-based; details: in vivo
[3] = AUC in ICR mouse at 1 mg/kg, iv by LC-MS/MS analysis; assay type: ADME, organism-based; details: in vivo
PC-9 [4] = experiment: Binding affinity to RNF149/EGFR mutant in human PC-9 cells at 2 uM incubated for 4 hrs by CETSA analysis; assay type: cell-based
[5] = tested on: E3 ubiquitin-protein ligase RNF149/Epidermal growth factor receptor (Homo sapiens), P00533+Q8NC42 [UNDEFINED MUTATION]; experiment: SiHyT-mediated degrader activity at RNF149/EGFR mutant in human HCC827 cels assessed as induction of EGFR degradation at 0.1 uM cells incubated in serum-free media for 8 hrs followed by incubation with compound for 24 hrs by western blot analysis; assay type: cell-based
Chain of E3 ubiquitin-protein ligase RNF149/Epidermal growth factor receptor (Homo sapiens), P00533+Q8NC42 [UNDEFINED MUTATION] (P00533 whole entry, looked up, stated change not applied): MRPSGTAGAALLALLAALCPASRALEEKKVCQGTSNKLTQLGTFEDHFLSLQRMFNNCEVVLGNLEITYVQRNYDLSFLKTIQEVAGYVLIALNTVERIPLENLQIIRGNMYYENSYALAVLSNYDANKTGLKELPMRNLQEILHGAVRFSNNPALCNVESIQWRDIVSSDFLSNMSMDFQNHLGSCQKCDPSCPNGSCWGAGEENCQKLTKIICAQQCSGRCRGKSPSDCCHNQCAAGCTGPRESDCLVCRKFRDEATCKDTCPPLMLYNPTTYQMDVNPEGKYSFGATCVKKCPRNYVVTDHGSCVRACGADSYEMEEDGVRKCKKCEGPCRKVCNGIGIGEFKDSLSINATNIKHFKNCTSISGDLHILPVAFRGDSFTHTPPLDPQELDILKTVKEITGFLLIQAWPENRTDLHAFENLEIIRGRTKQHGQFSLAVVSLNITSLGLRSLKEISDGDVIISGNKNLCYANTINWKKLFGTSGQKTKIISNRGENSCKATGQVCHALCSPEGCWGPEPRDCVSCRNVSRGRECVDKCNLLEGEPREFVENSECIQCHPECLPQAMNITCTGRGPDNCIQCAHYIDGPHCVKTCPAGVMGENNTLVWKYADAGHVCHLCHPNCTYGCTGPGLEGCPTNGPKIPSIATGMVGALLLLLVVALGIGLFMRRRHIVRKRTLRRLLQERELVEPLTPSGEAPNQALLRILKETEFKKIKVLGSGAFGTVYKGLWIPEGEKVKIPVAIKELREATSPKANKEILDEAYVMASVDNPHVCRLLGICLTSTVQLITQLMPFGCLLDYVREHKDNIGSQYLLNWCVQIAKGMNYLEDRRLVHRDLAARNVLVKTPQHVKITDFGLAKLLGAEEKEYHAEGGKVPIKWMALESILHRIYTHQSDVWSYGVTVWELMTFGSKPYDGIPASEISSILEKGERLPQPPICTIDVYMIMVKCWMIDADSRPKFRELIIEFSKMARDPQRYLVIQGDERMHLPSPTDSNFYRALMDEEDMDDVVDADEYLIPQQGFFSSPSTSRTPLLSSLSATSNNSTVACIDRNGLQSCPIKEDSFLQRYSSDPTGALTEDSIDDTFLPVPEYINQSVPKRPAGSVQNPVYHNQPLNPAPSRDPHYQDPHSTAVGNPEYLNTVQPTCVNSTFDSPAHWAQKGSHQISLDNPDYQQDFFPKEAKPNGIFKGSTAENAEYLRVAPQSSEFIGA
Chain of E3 ubiquitin-protein ligase RNF149/Epidermal growth factor receptor (Homo sapiens), P00533+Q8NC42 [UNDEFINED MUTATION] (Q8NC42 whole entry, looked up, stated change not applied): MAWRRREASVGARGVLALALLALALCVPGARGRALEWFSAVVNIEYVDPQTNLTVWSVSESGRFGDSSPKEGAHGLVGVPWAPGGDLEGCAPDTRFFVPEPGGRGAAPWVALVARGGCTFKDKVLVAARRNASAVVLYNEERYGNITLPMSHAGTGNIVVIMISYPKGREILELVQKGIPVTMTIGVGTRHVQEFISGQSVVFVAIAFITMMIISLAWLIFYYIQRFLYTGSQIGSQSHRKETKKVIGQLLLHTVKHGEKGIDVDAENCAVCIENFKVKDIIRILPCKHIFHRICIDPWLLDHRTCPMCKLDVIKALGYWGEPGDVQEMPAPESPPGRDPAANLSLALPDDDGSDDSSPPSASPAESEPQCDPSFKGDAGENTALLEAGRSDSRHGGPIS

[6] = Toxicity in mouse assessed as pathological changes in kidneys administered for 14 days by Hematoxylin-Eosin staining based analysis; details: in vivo, 336 h, time 14 day
PC-9 [7] = experiment: SiHyT-mediated degrader activity at RNF149/EGFR mutant in human PC-9 cells assessed as induction of EGFR degradation by measuring decrease in half-time of EGFR at 2 uM incubated for 6 to 24 hrs in presence of protein synthesis inhibitor, cycloheximide by western blot analysis; assay type: cell-based; details: time 6-24 hrs
PC-9 [8] = experiment: SiHyT-mediated degrader activity at RNF149/EGFR mutant in human PC-9 cells assessed as induction of EGFR degradation at 1 uM in presence of HSP90 inhibitor, geldanamycin by western blot analysis; assay type: cell-based
PC-9 [9] = experiment: Induction of interaction between RNF149/EGFR mutant in human PC-9 cells assessed as disruption of EGFR mutant/HSP90 complex formation at 2 uM measured after 6 hrs by co-immunoprecipitation analysis; assay type: cell-based
PC-9 [10] = experiment: Induction of apoptosis in human PC-9 cells at 0.5 to 2 uM incubated for 48 hrs by AnnexinV-FITC/PI staining based flow cytometry; assay type: functional, cell-based; details: dose 0.5-2 µM
[11] = MRT in ICR mouse at 1 mg/kg, iv by LC-MS/MS analysis; assay type: ADME, organism-based; details: in vivo
PC-9 [12] = experiment: Antiproliferative activity against human PC-9 cells assessed as decrease in cell survival measured after 72 hrs by CCK-8 assay; assay type: functional, cell-based; details: PC-9, 72 h
MCF-10A = experiment: Cytotoxicity against human MCF-10A cells assessed as reduction in cell viability; assay type: toxicity, cell-based
PC-9 [13] = experiment: Induction of interaction between RNF149/EGFR mutant in human PC-9 cells assessed as disruption of EGFR mutant/HSP70 complex formation at 2 uM measured after 6 hrs by co-immunoprecipitation analysis; assay type: cell-based
[14] = tested on: E3 ubiquitin-protein ligase RNF149/Epidermal growth factor receptor (Homo sapiens), P00533+Q8NC42 [UNDEFINED MUTATION]; experiment: SiHyT-mediated degrader activity at RNF149/EGFR mutant in human HCC827 cells assessed as induction of EGFR degradation by measuring decrease in EGFR level at 1 uM measured after 24 hrs by western blot analysis; assay type: cell-based
[15] = Toxicity in mouse assessed as pathological changes in lungs administered for 14 days by Hematoxylin-Eosin staining based analysis; details: in vivo, 336 h, time 14 day
[16] = molecular target: Epidermal growth factor receptor (Homo sapiens) (UniProt P00533); experiment: Induction of EGFR mutant degradation in human PC-9 cells transfected with RNF149 shRNA at 1 uM by western blot analysis; assay type: cell-based
Chain of Epidermal growth factor receptor (Homo sapiens) (P00533 whole entry): as the sequence (P00533 whole entry, looked up, stated change not applied) above

HCC827 [17] = experiment: Induction of cell cycle arrest in human HCC827 cells assessed as increase in cell accumulation at G1 phase at 0.5 to 2 uM incubated for 24 hrs by propidium iodide staining based flow cytometry; assay type: functional; details: dose 0.5-2 µM
PC-9 [18] = experiment: Inhibition of cell invasion in human PC-9 cells at 0.5 to 1 uM incubated for 24 hrs by wound healing analysis; assay type: functional, cell-based; details: dose 0.5-1 µM
[19] = tested on: E3 ubiquitin-protein ligase RNF149/Epidermal growth factor receptor (Homo sapiens), P00533+Q8NC42 [UNDEFINED MUTATION]; experiment: SiHyT-mediated degrader activity at […] mutant in human HCC827 cells assessed as decrease in EGFR expression level at 2 uM measured after 12 hrs by proteomics analysis; assay type: cell-based
PC-9 [20] = experiment: Induction of interaction between RNF149/EGFR mutant in human PC-9 cells measured after 6 hrs by co-immunoprecipitation analysis; assay type: cell-based
[21] = Half life of the compound in mouse liver microsomes at 1 uM in presence of NADPH by LC-MS/MS analysis; assay type: ADME, Microsome
PC-9 [22] = experiment: SiHyT-mediated degrader activity at RNF149/EGFR mutant in human PC-9 cells assessed as induction of EGFR degradation by measuring EGFR expression level at 2 uM incubated for 24 hrs followed by drug wash-out and measured after 24 hrs by western blot analysis; assay type: cell-based
PC-9 [23] = experiment: SiHyT-mediated degrader activity at RNF149/EGFR mutant in human PC-9 cells assessed as increase in EGFR ubiquitination level at 2 uM pretreated with MG132 for 2 hrs followed by incubation with compound for 9 hrs by immunoprecipitation based western blot analysis; assay type: cell-based
PC-9 [24] = experiment: Induction of cell cycle arrest in human PC-9 cells assessed as increase in cell accumulation at G1 phase at 0.5 to 2 uM incubated for 24 hrs by propidium iodide staining based flow cytometry; assay type: functional; details: dose 0.5-2 µM
[25] = (§1) SiHyT-mediated degrader activity at RNF149/EGFR mutant in human PC-9 cells assessed as induction of EGFR degradation cells incubated in serum-free media for 8 hrs followed by incubation with compound for 24 hrs by western blot analysis; assay type: cell-based
PC-9 [26] = experiment: as §1; assay type: cell-based
[27] = Tmax in ICR mouse at 1 mg/kg, iv by LC-MS/MS analysis; assay type: ADME, organism-based; details: in vivo
[28] = tested on: E3 ubiquitin-protein ligase RNF149/Epidermal growth factor receptor (Homo sapiens), P00533+Q8NC42 [UNDEFINED MUTATION]; experiment: SiHyT-mediated degrader activity at RNF149/EGFR mutant in human HCC827 cells assessed as induction of EGFR degradation by measuring decrease in EGFR level at 1 uM measured after 9 hrs by western blot analysis; assay type: cell-based
HEK-293T = experiment: Cytotoxicity against human HEK293T cells assessed as reduction in cell viability; assay type: toxicity, cell-based
[29] = Intrinsic clearance of the compound in human liver microsomes at 1 uM in presence of NADPH by LC-MS/MS analysis; assay type: ADME, Microsome; details: read-out: CLH
BEAS-2B = experiment: Cytotoxicity against human BEAS-2B cells assessed as reduction in cell viability; assay type: toxicity, cell-based
HCC827 [30] = experiment: Induction of apoptosis in human HCC827 cells at 0.5 to 2 uM incubated for 48 hrs by AnnexinV-FITC/PI staining based flow cytometry; assay type: functional, cell-based; details: dose 0.5-2 µM
[31] = tested on: E3 ubiquitin-protein ligase RNF149/Epidermal growth factor receptor (Homo sapiens), P00533+Q8NC42 [UNDEFINED MUTATION]; experiment: SiHyT-mediated degrader activity at RNF149/EGFR mutant in human HCC827 cells assessed as induction of EGFR degradation at 1 uM cells incubated in serum-free media for 8 hrs followed by incubation with compound for 24 hrs by western blot analysis; assay type: cell-based
[32] = MRT in ICR mouse at 10 mg/kg, po by LC-MS/MS analysis; assay type: ADME, organism-based; details: in vivo
Mus musculus = experiment: In vivo induction of EGFR mutant degradation in tumor of mouse xenografted with human PC-9 cells assessed as decrease in EGFR expression at 10 mg/kg, po measured after 6 to 48 hrs by immunoblot analysis; assay type: functional, organism-based; details: time 6-48 hrs

In the case of `COc1cc2ncnc(Nc3ccc(F)c(Cl)c3)c2cc1OCCn1cc(CCCO[Si](c2ccccc2)(c2ccccc2)C(C)(C)C)nn1`, the bioavailability [1] is reported as 8.67%, the Cmax [2] is reported as 2210 ng/mL and the AUC [3] is reported as 2164.76 ng·mL·h. For the same compound, the Activity (PC-9 [4]) was “Active”, the Activity [5] was 54.6% and the Activity [6] was “Non-toxic”. The Activity (PC-9 [7]) was “Active”, the Activity (PC-9 [8]) was “Active” and the Activity (PC-9 [9]) was “Active”. For the same compound, the Activity (PC-9 [10]) was “Dose-dependent-effect”, the MRT [11] was 2.72 h and the IC50 (PC-9 [12]) was 340 nM. For the same compound, the Activity (MCF-10A) was “Toxic”, the Activity (PC-9 [13]) was “inactive” and the Activity [14] was “Active”. The Activity [15] was “Non-toxic”, the Activity [16] was “inactive” and the Activity (HCC827 [17]) was “Dose-dependent-effect”. The inhibition (PC-9 [18]) was “Active”, the Activity [19] was “Active” and the Activity (PC-9 [20]) was “Active”. For the same compound, the half-life at 1 µM [21] was over 60 min, the Activity (PC-9 [22]) was “inactive” and the Activity (PC-9 [23]) was “Active”. The Activity (PC-9 [24]) was “Dose-dependent-effect”, the DC50 [25] was 1420 nM and the Activity (PC-9 [26]) was “Dose-dependent-effect”. The Tmax [27] was 4.8 min, the Activity [28] was “Active” and the Activity (HEK-293T) was “Toxic”. For the same compound, the CLint scaled at 1 µM [29] was 9.3 mL/min/kg, the Activity (BEAS-2B) was “Toxic” and the Activity (HCC827 [30]) was “Dose-dependent-effect”. For the same compound, the Activity [31] was 87.2%, the MRT [32] was 2.57 h and the Activity (Mus musculus) was “Active”.
